Assay results: patent publication US20230219965A1 (KSQ Therapeutics, Inc., priority 2020, published 2023)

biological target: USP1/UAF1 enzyme (Homo sapiens, UniProt O94782); assay: USP1/UAF1 deubiquitination assay (ubiquitin-rhodamine 110 substrate); type: biochemical; conditions: read-out: USP1 IC50 (Ub-Rho)
Experimental: Certain Compounds of the Disclosure were assessed for USP1/UAF1 activity in a Ubiquitin Rhodamine assay modified from those described previously.
Deubiquitinase activity was measured using ubiquitin-rhodamine 110 as a substrate. Cleavage of the amide bond between rhodamine and the c-terminal glycine of ubiquitin yields an increase in fluorescence signal. The assay was conducted in 20 μl total volume of assay buffer (50 mM Tris-HCl, pH 7.8, 0.5 mM EDTA, 0.01% Bovine Serum Albumin, 1 mM DTT, 0.01% Tween-20), and 0.05 nM USP1/UAF1 enzyme. Reaction was initiated by addition of 150 nM Ubiquitin-rhodamine (Boston Biochem) substrate.
Compounds of the Disclosure, dissolved in DMSO were tested in dose response format, beginning at […].
The example compounds listed below were added to enzyme/assay buffer mix and incubated 10 min. Substrate mix was added, and reaction mix was read in kinetic mode for 30 min at Ex480/Em540 and IC50 response curves were plotted.
Data for all assay formats was calculated as percent inhibition compared with control wells. Percent inhibition was calculated using the following equation: % inhibition=100×[1−(X−min)/(max−min)], where X is the raw data readout, min is the average of the no enzyme control wells (n=32), max is the average of the DMSO control well (n=32). IC50 values were calculated using the standard four parameter curve fitting algorithm in either Prism GraphPad (La Jolla, Calif.) software, or Collaborative Drug Discovery (Burlingame, Calif.) CDD Vault. See Chem. Biol. 20(1): 55-62 (Jan. 24, 2013); Bioorg. Med. Chem. Lett. 23(20): 5660-5666 (Oct. 15, 2013).

Sequence of USP1/UAF1 enzyme (O94782 whole entry): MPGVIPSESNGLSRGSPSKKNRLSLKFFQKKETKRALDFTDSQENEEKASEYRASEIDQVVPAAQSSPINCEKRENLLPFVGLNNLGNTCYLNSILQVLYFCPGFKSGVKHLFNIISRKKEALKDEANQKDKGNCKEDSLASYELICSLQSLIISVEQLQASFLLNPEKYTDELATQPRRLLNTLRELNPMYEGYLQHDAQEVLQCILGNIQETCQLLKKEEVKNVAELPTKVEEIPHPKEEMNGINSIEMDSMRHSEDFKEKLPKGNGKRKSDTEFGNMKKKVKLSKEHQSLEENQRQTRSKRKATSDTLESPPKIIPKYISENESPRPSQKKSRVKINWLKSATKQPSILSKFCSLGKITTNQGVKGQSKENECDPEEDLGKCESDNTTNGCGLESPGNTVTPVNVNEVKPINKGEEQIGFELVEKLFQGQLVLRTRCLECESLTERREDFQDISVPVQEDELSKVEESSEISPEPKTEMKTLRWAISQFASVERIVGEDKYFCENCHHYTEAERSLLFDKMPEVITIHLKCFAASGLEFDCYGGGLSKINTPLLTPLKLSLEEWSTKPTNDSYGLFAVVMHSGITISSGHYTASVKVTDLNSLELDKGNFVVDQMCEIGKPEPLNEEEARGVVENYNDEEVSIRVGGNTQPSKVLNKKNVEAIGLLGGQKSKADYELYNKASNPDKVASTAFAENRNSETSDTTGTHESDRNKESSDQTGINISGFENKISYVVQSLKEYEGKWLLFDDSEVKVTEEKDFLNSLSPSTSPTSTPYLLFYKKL
Sequence of USP1/UAF1 enzyme (Q8TAF3 whole entry partner): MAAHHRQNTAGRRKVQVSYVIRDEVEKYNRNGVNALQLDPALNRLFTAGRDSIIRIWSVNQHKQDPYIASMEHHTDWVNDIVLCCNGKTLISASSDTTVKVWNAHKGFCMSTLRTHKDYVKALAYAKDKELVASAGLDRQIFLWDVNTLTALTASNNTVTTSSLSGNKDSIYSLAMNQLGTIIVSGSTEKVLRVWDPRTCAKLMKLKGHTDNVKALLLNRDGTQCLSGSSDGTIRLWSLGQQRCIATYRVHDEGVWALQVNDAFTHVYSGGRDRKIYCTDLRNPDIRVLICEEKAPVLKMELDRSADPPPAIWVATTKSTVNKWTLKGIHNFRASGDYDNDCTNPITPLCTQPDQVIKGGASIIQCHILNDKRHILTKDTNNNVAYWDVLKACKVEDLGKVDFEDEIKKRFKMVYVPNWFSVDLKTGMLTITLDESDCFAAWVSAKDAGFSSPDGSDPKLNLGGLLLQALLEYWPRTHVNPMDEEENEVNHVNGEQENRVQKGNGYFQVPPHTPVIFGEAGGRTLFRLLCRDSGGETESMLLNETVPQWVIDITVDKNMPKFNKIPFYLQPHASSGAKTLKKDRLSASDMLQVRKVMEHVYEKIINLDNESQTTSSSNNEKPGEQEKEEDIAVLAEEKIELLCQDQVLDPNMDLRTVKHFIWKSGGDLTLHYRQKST

IC50 | SMILES
> 500 nM | COc1cccnc1-c1ccc(N[C@@H]2CCCn3nc(-c4c(OC)ncnc4C4CC4)cc32)cc1F (single isomer, unassigned) [Example 251]
100 to 500 nM | COc1cccnc1-c1ccc(N[C@H]2CCCn3nc(-c4c(OC)ncnc4C4CC4)cc32)cc1F (single isomer, unassigned) [Example 252]
100 to 500 nM | COc1cccnc1-c1ccc(N[C@@H]2CCCn3nc(-c4c(OC)ncnc4C4CC4)cc32)cc1Cl (single isomer, unassigned) [Example 253]
100 to 500 nM | COc1cccnc1-c1ccc(N[C@H]2CCCn3nc(-c4c(OC)ncnc4C4CC4)cc32)cc1Cl (single isomer, unassigned) [Example 254]
100 to 500 nM | COc1ncnc(C2CC2)c1-c1cc2n(n1)CCC(=O)N2C(C)c1ccc(-c2nc(C(F)(F)F)cn2C)cc1 (stereo not drawn) [Example 3, 2-(4-cyclopropyl-6-methoxypyrimidin-5-yl)-4-(1-(4-(1-methyl-4-(trifluoromethyl)-1H-imidazol-2-yl)phenyl)ethyl)-6,7-dihy dropyrazolo[1,5-a]pyrimidin-5(4H)-one]
100 to 500 nM | CCn1cc(C(F)(F)F)nc1-c1ccc(CN2C(=O)CCn3nc(-c4c(OC)ncnc4OC)cc32)cc1 [Example 5, 2-(4,6-dimethoxypyrimidin-5-yl)-4-(4-(1-ethyl-4-(trifluoromethyl)-1H-imidazol-2-yl)benzyl)-6,7-dihydropyrazolo[1,5-a]pyrimidin-5(4H)-one]
> 500 nM | CCn1nc(-c2ccc(CN3C(=O)CCn4nc(-c5c(C)cnn5C(C)C)cc43)cc2)nc1C(F)(F)F [Example 15, 4-(4-(1-ethyl-5-(trifluoromethyl)-1H-1,2,4-triazol-3-yl)benzyl)-2-(1-isopropyl-4-methyl-1H-pyrazol-5-yl)-6,7-dihydropyrazolo[1,5-a]pyrimidin-5(4H)-one]
< 100 nM | CCn1ncc(Cl)c1-c1cc2n(n1)CCC(=O)N2Cc1ccc(-c2nc(C(F)(F)F)cn2C)c(F)c1 [Example 17, 2-(4-chloro-1-ethyl-1H-pyrazol-5-yl)-4-(3-fluoro-4-(1-methyl-4-(trifluoromethyl)-1H-imidazol-2-yl)benzyl)-6,7-dihydropyrazolo[1,5-a]pyrimidin-5(4H)-one]
100 to 500 nM | CC(C)n1ncc(F)c1-c1cc2n(n1)CCC(=O)N2Cc1ccc(-c2nc(C(F)(F)F)cn2C)c(F)c1 [Example 21, 2-(4-fluoro-1-isopropyl-1H-pyrazol-5-yl)-4-(3-fluoro-4-(1-methyl-4-(trifluoromethyl)-1H-imidazol-2-yl)benzyl)-6,7-dihydropyrazolo[1,5-a]pyrimidin-5(4H)-one]
100 to 500 nM | CCn1cc(C(F)(F)F)nc1-c1ccc(CN2C(=O)CCn3nc(-c4cccc5c4N(C)CC5)cc32)cc1 [Example 23, 4-(4-(1-ethyl-4-(trifluoromethyl)-1H-imidazol-2-yl)benzyl)-2-(1-methylindolin-7-yl)-6,7-dihydropyrazolo[1,5-a]pyrimidin-5(4H)-one]
100 to 500 nM | COc1ncnc(C)c1-c1cc2n(n1)CCCN2Cc1ccc(-n2nc(C(F)(F)F)cc2C)cc1 [Example 26]
> 500 nM | CCn1cc(C(F)(F)F)nc1-c1ccc(CN2C(=O)CCn3nc(-c4c(OC)cnn4C(C)C)nc32)cc1 [Example 45]
100 to 500 nM | COc1ncnc(C2CC2)c1-c1cc2n(n1)CCC(=O)N2Cc1ccc(-c2nc(C(F)(F)F)c[nH]2)cc1 [Example 69, 2-(4-cyclopropyl-6-methoxypyrimidin-5-yl)-4-(4-(4-(trifluoromethyl)-1H-imidazol-2-yl)benzyl)-6,7-dihydropyrazolo[1,5-α]pyrimidin-5(4H)-one]
100 to 500 nM | COc1ncnc(C2CC2)c1-c1cc2n(n1)CC(C)(C)C(=O)N2Cc1ccc(-c2nc(C(F)(F)F)cn2C)cc1 [Example 76, 2-(4-cyclopropyl-6-methoxypyrimidin-5-yl)-6,6-dimethyl-4-(4-(1-methyl-4-(trifluoromethyl)-1H-imidazol-2-yl)benzyl)-6,7-dihydropyrazolo[1,5-α]pyrimidin-5(4H)-one]
< 100 nM | COc1ncnc(C2CC2)c1-c1cc2n(n1)CCC(=O)N2Cc1ccc(-c2nc(C(F)(F)F)cn2CCF)cc1 [Example 81]
100 to 500 nM | CC(C)n1ncc(Cl)c1-c1cc2n(n1)CCC(=O)N2Cc1ccc(-c2nc(C(F)(F)F)cn2C)nc1 [Example 82]
> 500 nM | COc1ncnc(C2CC2)c1-c1cc2n(n1)CCC(=O)N2Cc1ccc(-c2nc(C(F)(F)F)cn2C)nc1 [Example 83]
100 to 500 nM | CCn1nc(C(F)(F)F)nc1-c1ccc(CN2C(=O)CCn3nc(-c4c(Cl)cnn4C(C)C)cc32)cc1 [Example 84]
100 to 500 nM | CCn1cc(C(F)(F)F)nc1-c1ccc(CN2C(=O)CCn3nc(-c4c(F)cnn4C(C)C)cc32)cc1 [Example 85]
> 500 nM | CCn1nc(C(F)(F)F)nc1-c1ccc(CN2C(=O)CCn3nc(-c4c(OC)ncnc4C4CC4)cc32)cc1 [Example 87]
100 to 500 nM | COc1ncnc(C2CC2)c1-c1cc2n(n1)CCC(=O)N2Cc1ccc(-n2nc(C)cc2C(F)(F)F)c(F)c1 [Example 88]
< 100 nM | COc1cc(C(F)(F)F)nn1-c1ccc(CN2C(=O)CCn3nc(-c4c(Cl)cnn4C(C)C)cc32)cn1 [Example 89]
> 500 nM | COc1ncnc(C2CC2)c1-c1cc2n(n1)CCC(=O)N2Cc1ccc(-c2nn(C)cc2C)cc1 [Example 90]
> 500 nM | Cc1cc(C(F)(F)F)n(-c2ccc(CN3C(=O)CCn4nc(-c5c(Cl)cnn5C(C)C)cc43)cc2F)n1 [Example 92]

IC50 | SMILES
100 to 500 nM | COc1ncnc(C2CC2)c1-c1cc2n(n1)CCC(=O)N2Cc1ccc(-n2nc(C(F)(F)F)cc2OC)nc1 [Example 94]
100 to 500 nM | CC(C)n1ncc(Cl)c1-c1cc2n(n1)CCC(=O)N2Cc1ccc(-c2ccn(C)n2)cc1 [Example 95]
100 to 500 nM | COCc1cc(C(F)(F)F)nn1-c1ccc(CN2C(=O)CCn3nc(-c4c(OC)ncnc4C4CC4)cc32)cc1 [Example 99]
100 to 500 nM | CC(C)n1ncc(Cl)c1-c1cc2n(n1)CCC(=O)N2Cc1ccc(-c2nc(C(F)(F)F)n(C)n2)cc1 [Example 101]
100 to 500 nM | CC(C)n1ncc(Cl)c1-c1cc2n(n1)CCC(=O)N2Cc1ccc(-c2nc(C(F)(F)F)nn2C)cc1 [Example 102]
100 to 500 nM | CCn1cc(C(F)(F)F)nc1-c1ccc(CN2C(=O)CCn3nc(-c4c(OC)ncnc4C4CC4)cc32)cn1 [Example 105]
100 to 500 nM | COc1ncnc(C2CC2)c1-c1cc2n(n1)CCC(=O)N2Cc1ccc(-n2nc(C#N)cc2OC)cc1 [Example 107]
100 to 500 nM | CC(c1ccc(F)cc1)N1C(=O)CCn2nc(-c3c(Cl)cnn3C(C)C)cc21 (stereo not drawn) [Example 110]
100 to 500 nM | COc1ccnn1-c1ccc(CN2C(=O)CCn3nc(-c4c(Cl)cnn4C(C)C)cc32)cc1 [Example 117]
100 to 500 nM | CCn1cc(C(F)(F)F)nc1-c1cc2c(cc1F)C(N1C(=O)CCn3nc(-c4c(Cl)cnn4C(C)C)cc31)CC2 (stereo not drawn) [Example 121]
100 to 500 nM | CCn1cc(C)nc1-c1ccc(CN2C(=O)CCn3nc(-c4c(Cl)cnn4C(C)C)cc32)cc1 [Example 134]
100 to 500 nM | CCn1cc(C(F)(F)F)nc1-c1ccc(CN2C(=O)CCn3nc(-c4c(OC)ncnc4C4CC4)cc32)cc1OC [Example 136]
100 to 500 nM | CCn1cc(C(F)(F)F)nc1-c1ccc(CN2C(=O)CCn3nc(-c4c(OC)ncnc4C4CC4)cc32)nc1 [Example 137]
100 to 500 nM | COc1ncnc(C2(C)CC2)c1-c1cc2n(n1)CCC(=O)N2Cc1ccc(-c2nc(C(F)(F)F)cn2C)c(F)c1 [Example 149, 4-(3-fluoro-4-(1-methyl-4-(trifluoromethyl)-1H-imidazol-2-yl)benzyl)-2-(4-methoxy-6-(1-methylcyclopropyl)pyrimidin-5-yl)-6,7-dihydropyrazolo[1,5-α]pyrimidin-5(4H)-one]
100 to 500 nM | CCn1cc(C(F)(F)F)nc1-c1ccc(CN2C(=O)CCn3nc(-c4c(Cl)cnn4C4CCOC4)cc32)cc1 (stereo not drawn) [Example 150]
100 to 500 nM | COc1cnn(C(C)C)c1-c1cc2n(n1)CCC(=O)N2Cc1ccc(-c2nc(C(F)(F)F)cn2C(C)C)cc1 [Example 152]
100 to 500 nM | CCn1cc(C(F)(F)F)nc1-c1ccc(CN2C(=O)CCn3nc(-c4c(OC)cnn4C(C)C)cc32)cc1 [Example 155]
100 to 500 nM | CCn1cc(C(F)(F)F)nc1-c1ccc(CN2C(=O)CCn3nc(-c4c(C(C)(C)C)cnn4C)cc32)cc1 [Example 157]
> 500 nM | CCn1cc(C(F)(F)F)nc1-c1ccc(CN2C(=O)CCn3nc(-c4c(C(C)C)cnn4C)cc32)cc1 [Example 158]
100 to 500 nM | CCn1cc(C(F)(F)F)nc1-c1ccc(CN2C(=O)CCn3nc(-c4c(C5CC5)cnn4C(C)C)cc32)cc1 [Example 161]
100 to 500 nM | CCn1cc(C(F)(F)F)nc1-c1ccc(CN2C(=O)CCn3nc(-c4c(Cl)cnn4CCO)cc32)cc1F [Example 163]
100 to 500 nM | CCn1cc(C(F)(F)F)nc1-c1ccc(CN2C(=O)CCn3nc(-c4c(OC)ncnc4C4CC4)nc32)cc1OC [Example 185]
100 to 500 nM | CCn1cc(C(F)(F)F)nc1-c1ccc(CN2C(=O)CCn3nc(-c4c(OC)ncnc4C4CC4)nc32)cc1OC(F)F [Example 192]
> 500 nM | CCn1cc(C#N)nc1-c1ccc([C@H](C)N2C(=O)CCn3nc(-c4c(OC)ncnc4C4CC4)nc32)cc1 [Example 198]
